Assay type in all cases: in vivo
The test system of test [1] is Tobacco Budworm [Heliothis virescens (Fabricius)] eggs. Description: Tobacco budworm egg test. The following applies: 2-day old eggs, percent in solution. An outline of the steps: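 2-day eggs on paper towel, acetone dip, 0.1% and below; petri dish with larval diet, 78° F. Mortality read after control hatch and larval feeding. LC50 = % compound in solution, from dose-mortality curve.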

In test [2] the test system is Cabbage Looper [Trichoplusia ni (Hubner)]. Briefly: Cabbage looper insecticidal test. The settings on record: second-instar larvae, percent in solution; 3-5 days. An outline of the steps:
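LC50 values, given as percent test compound in solution, were calculated from dosage-mortality curves. Squash cotyledons were immersed 2-3 s in acetone-water (50-50) dilutions starting at 0.1%, dried on a screen, then infested with five second-instar larvae. Mortality was read 3-5 days on.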

For test [3], the system named is Maize weevil [Sitophilus Zeamais (Motschulsky)]. Briefly: Maize weevil insecticidal test. The following applies: adult weevils, percent in solution; 48 hours. The protocol: The compounds in Tables 1 and 2 above were tested for insecticidal activity using the following testing procedures. LC50 values, based on the results of these tests and calculated according to dosage-mortality curves, are expressed in Table 3.
Maize weevil [Sitophilus Zeamais (Motschulsky)]:
Test compounds were diluted in a 50:50 acetone:water solution. Four corn seeds [Zea mays (L.)] which had been immersed in test solutions for 2-3 seconds and allowed to dry were placed in containers together with 10 adult weevils. The containers were covered and kept at a temperature of about 25° C. Mortality was recorded after 48 hours. Test concentrations ranged from 0.01% down to that at which 50% mortalilty occurred. The LC50 values are expressed below in Table 3 under the heading "MW" in terms of percent of the test compound in solution.

Test [4] has as its system Housefly [Musca domestica]. Briefly: Housefly insecticidal test. The settings on record: μg per 25 female flies; mortality after 48 hours. An outline of the steps: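 Dry-film exposure of 25 female houseflies per cage, 48 h; LC50 as μg per 25 flies.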

Some results are limits rather than exact numbers.

As for `CCOc1ccc(N=C(OCc2cccc(Oc3ccc(F)cc3)c2)C(C)C)cc1Br` [Compound 446], the “LC50, TBW, E (TBW-E)” value in test [1] is listed as under 0.1%. For the same compound, the “LC50, CL” value in test [2] was 0.0008%. Moreover, in test [3], the “LC50, MW” value is over 0.01%. Moreover, the “LC50, HF” value in test [4] is over 100 µg.
In the case of `CC(C)C(=Nc1ccc(F)c(I)c1)OCc1ccc(F)c(Oc2ccccc2)c1` [Compound 334], the “LC50, TBW, E (TBW-E)” value in test [1] worked out at 0.013%. Besides, in test [2], the “LC50, CL” value came out at 0.0007%. Further, in test [3], the “LC50, MW” value is reported as over 0.01%. Besides, the “LC50, HF” value in test [4] was determined as 9 µg.
For the compound `CC(C)C(=Nc1ccc(C#N)cc1)OCc1cccc(Oc2cccc(Cl)c2)c1` [Compound 208], in test [1], the “LC50, TBW, E (TBW-E)” value is over 0.1%. Moreover, in test [2], the “LC50, CL” value is 0.0035%. Besides, in test [4], the “LC50, HF” value turned out to be 27 µg.
In the same order, the values of `CSc1cccc(N=C(OCc2cccc(Oc3ccccc3)c2)C(C)C)c1` [Compound 166] are over 0.1%, 0.009% and 22 µg.
For `CCOc1ccc(N=C(OCc2cccc(Oc3ccccc3)c2)C(C)(C)C)cc1` [Compound 164], the “LC50, TBW, E (TBW-E)” value in test [1] is over 0.1%. The “LC50, CL” value in test [2] is 0.005%. Besides, in test [4], the “LC50, HF” value is over 100 µg.
For `CC(Cl)C(=Nc1ccc(Cl)c(Cl)c1)OCc1cccc(Oc2ccccc2)c1` (centres unmarked) [Compound 27] the same measures were over 0.1%, 0.04% and over 100 µg.
For `CC(C)C(=Nc1ccc(F)c(F)c1)OCc1cccc(Oc2ccc(C#N)cc2)c1` [Compound 212] the same measures were 0.045%, 0.0005% and 20 µg.
For `Cc1ccc(Oc2cccc(COC(=Nc3ccc(F)cc3)C(C)C)c2)cc1` [Compound 231] the same measures were over 0.1%, 0.003% and over 100 µg.
For `Cc1cccc(N=C(OCc2cccc(Oc3ccccc3)c2)C(C)C)c1C` [Compound 148], in test [1], the “LC50, TBW, E (TBW-E)” value is listed as 0.025%. Besides, the “LC50, CL” value in test [2] is given as 0.0025%. The “LC50, HF” value in test [4] turned out to be 18 µg.
Consider `CC(C)C(=Nc1cccc(C(F)(F)F)c1)OC(C)c1cccc(Oc2ccccc2)n1` (centres unmarked) [Compound 499], for which the “LC50, TBW, E (TBW-E)” value in test [1] is recorded as over 0.1%. Besides, in test [2], the “LC50, CL” value is listed as 0.0024%. The “LC50, HF” value in test [4] turned out to be 63 µg.
On to `CC(C)(C)C(=Nc1cccc(Br)c1)OCc1cccc(Oc2ccccc2)c1` [Compound 134], for which the “LC50, TBW, E (TBW-E)” value in test [1] is listed as over 0.1%. Moreover, in test [2], the “LC50, CL” value is listed as 0.015%. Further, in test [4], the “LC50, HF” value is over 100 µg.
For `CC(C)C(=Nc1ccc(F)c(Cl)c1)OCc1cccc(Oc2ccncc2)c1` [Compound 470] the same measures were over 0.1%, 0.02% and 25 µg.
For `CC(C)C(=Nc1ccc(Br)cc1F)OCc1cccc(Oc2ccccc2)c1` [Compound 79], in test [1], the “LC50, TBW, E (TBW-E)” value was found to be 0.05%. Moreover, the “LC50, CL” value in test [2] is on record as 0.003%. In addition, in test [4], the “LC50, HF” value is 6 µg.
As for `CC(C)(F)C(=Nc1cccc(C(F)(F)F)c1)OCc1cccc(Oc2ccc(F)cc2)c1` [Compound 319], the “LC50, TBW, E (TBW-E)” value in test [1] is over 0.1%. Moreover, the “LC50, CL” value in test [2] amounted to 0.0007%. Moreover, the “LC50, HF” value in test [4] was found to be 44 µg.
In the same order, the values of `CCC(=Nc1ccc(F)cc1F)OCc1cccc(Oc2ccccc2)c1` [Compound 59] are over 0.1%, 0.02% and 25 µg.
For `CC(C)C(=Nc1ccc2c(c1)OC(C)(C)O2)OCc1cccc(Oc2ccc(Cl)cc2)n1` [Compound 468], the “LC50, TBW, E (TBW-E)” value in test [1] is over 0.1%. The “LC50, CL” value in test [2] is on record as over 0.1%. Moreover, in test [4], the “LC50, HF” value was determined as 50 µg.
For `CC(C)(C)C(=Nc1ccc(Cl)c([N+](=O)[O-])c1)OCc1cccc(Oc2ccccc2)c1` [Compound 105], the “LC50, TBW, E (TBW-E)” value in test [1] is given as over 0.1%. In addition, the “LC50, CL” value in test [2] is on record as 0.018%. In addition, the “LC50, HF” value in test [4] is over 100 µg.
In the same order, the values of `CC(C)C(=Nc1ccc(F)cc1)OCc1cccc(Oc2ccc(F)cc2)c1` [Compound 197] are 0.05%, 0.0004% and over 100 µg.
Take `CC(C)C(=Nc1cccc(C(F)(F)F)c1)OCc1ccc(OCc2ccccc2)cc1` [Compound 476]: the “LC50, TBW, E (TBW-E)” value in test [1] is given as over 0.1%. Further, the “LC50, CL” value in test [2] is 0.015%. In test [4], the “LC50, HF” value was over 100 µg.
Take `CC(C)C(=Nc1ccc(C(C)(C)C)cc1)OCc1cccc(Oc2ccc(F)cc2)c1` [Compound 235]: in test [1], the “LC50, TBW, E (TBW-E)” value is listed as over 0.1%. In addition, in test [2], the “LC50, CL” value is given as 0.004%. Also, the “LC50, HF” value in test [4] is over 100 µg.
As for `CC(C)C(=Nc1cccc(C(F)(F)F)c1)OCc1cccc(Oc2ccncc2)c1` [Compound 469], the “LC50, TBW, E (TBW-E)” value in test [1] is on record as over 0.1%. Further, the “LC50, CL” value in test [2] is given as 0.02%. Moreover, in test [4], the “LC50, HF” value is 40 µg.
As to `Cc1cccc(N=C(OCc2cccc(Oc3ccccc3)c2)C(C)C)c1C` [Compound 249], the “LC50, TBW, E (TBW-E)” value in test [1] amounted to 0.035%. Besides, the “LC50, CL” value in test [2] was found to be 0.0025%. Moreover, in test [4], the “LC50, HF” value was 36 µg.
For the compound `CC(C)C(=Nc1ccc(F)c(F)c1)OCc1coc(Cc2ccccc2)c1` [Compound 485], the “LC50, TBW, E (TBW-E)” value in test [1] is over 0.1%. For the same compound, in test [2], the “LC50, CL” value is given as over 0.1%. The “LC50, HF” value in test [4] came to 24 µg.
As to `CCC(=Nc1ccc(Cl)c(Cl)c1)OCc1cccc(Oc2ccccc2)c1` [Compound 36], the “LC50, TBW, E (TBW-E)” value in test [1] was over 0.1%. In addition, in test [2], the “LC50, CL” value was 0.024%. Moreover, in test [4], the “LC50, HF” value amounted to 20 µg.
For `CCC(=Nc1ccc(C(C)C)cc1)OCc1cccc(Oc2ccc(F)cc2)c1` [Compound 320] the same measures were over 0.1%, 0.0075% and over 100 µg.
As for `CC(C)C(=Nc1cccc(I)c1)OCc1cccc(Oc2ccccc2)c1` [Compound 136], in test [1], the “LC50, TBW, E (TBW-E)” value is 0.08%. The “LC50, CL” value in test [2] worked out at 0.004%. In test [4], the “LC50, HF” value was 9 µg.
`C=CCOc1cccc(COC(=Nc2cccc(C(F)(F)F)c2)C(C)C)c1` [Compound 480]: the “LC50, TBW, E (TBW-E)” value in test [1] is over 0.1%. Moreover, in test [2], the “LC50, CL” value amounted to 0.01%. Also, in test [4], the “LC50, HF” value is over 100 µg.
For `Fc1c(F)c(F)c(COC(=Nc2cccc(Cl)c2Cl)C(Cl)Cl)c(F)c1F` [Compound 454] the same measures were over 0.1%, 0.03% and over 100 µg.
In the same order, the values of `COc1cccc(N=C(OCc2cccc(Oc3ccc(F)cc3)c2)C(C)C)c1` [Compound 201] are over 0.1%, 0.004% and 15 µg.
Regarding `CC(Br)C(=Nc1ccc(F)c(Cl)c1)OCc1cccc(Oc2ccccc2)c1` (centres unmarked) [Compound 118], the “LC50, TBW, E (TBW-E)” value in test [1] was over 0.1%. Also, the “LC50, CL” value in test [2] was determined as 0.0013%. For the same compound, in test [4], the “LC50, HF” value was determined as 18 µg.
With `CC(C)C(=Nc1c(Cl)cc(Cl)cc1Cl)OCc1cccc(Oc2ccccc2)c1` [Compound 19], in test [1], the “LC50, TBW, E (TBW-E)” value was over 0.1%. Further, the “LC50, CL” value in test [2] is under 0.1%. In addition, the “LC50, HF” value in test [4] is over 100 µg.
As to `CC(C)C(=Nc1cc(F)ccc1F)OCc1cccc(Oc2ccccc2)c1` [Compound 56], in test [1], the “LC50, TBW, E (TBW-E)” value is recorded as over 0.05%. Moreover, in test [2], the “LC50, CL” value is 0.01%. Moreover, the “LC50, HF” value in test [4] is 91 µg.
In the case of `COCc1c(F)c(F)c(COC(=Nc2ccc3c(c2)OCO3)C(C)C)c(F)c1F` [Compound 501], in test [1], the “LC50, TBW, E (TBW-E)” value was over 0.1%. Also, the “LC50, CL” value in test [2] was 0.00045%. Also, the “LC50, HF” value in test [4] came to 20 µg.
For `CC(C)C(=Nc1ccc(F)c(Cl)c1)OCc1cccc(Oc2ccc(I)cc2)c1` [Compound 447] the same measures were over 0.1%, 0.0009% and 33 µg.
With `Cc1ccc(N=C(OCc2cccc(Oc3ccccc3)c2)C(C)C)c(Cl)c1` [Compound 94], the “LC50, TBW, E (TBW-E)” value in test [1] is reported as 0.075%. The “LC50, CL” value in test [2] was 0.0045%. The “LC50, HF” value in test [4] was 44 µg.
In the same order, the values of `Cc1cc(Cl)ccc1N=C(OCc1cccc(Oc2ccccc2)c1)C(C)(C)C` [Compound 109] are over 0.1%, 0.002% and over 100 µg.
In the same order, the values of `CC(C)C(=Nc1ccc(F)c(F)c1)OCc1cccc(Oc2ccc(F)cc2F)c1` [Compound 214] are 0.04%, 0.0003% and 19 µg.
With `CC(C)c1ccc(N=C(OCc2cccc(Oc3ccc(F)cc3)c2)C(C)(C)C)cc1` [Compound 322], the “LC50, TBW, E (TBW-E)” value in test [1] is listed as over 0.1%. In addition, in test [2], the “LC50, CL” value is on record as 0.007%. For the same compound, the “LC50, HF” value in test [4] was over 100 µg.
